# Activity calls are given as the source filed them. No cut-off for these calls is given here.
# What was measured:
# MC-38 [1] = experiment: Antitumor activity against mouse MC38 cells implanted in C57BL/6J mouse assessed as tumor growth inhibition at 5 mg/kg, po measured for 20 days; format: functional; settings: MC-38, 480 h, time 20 day, read-out: TGI
# [2] = target: T1, Programmed cell death protein 1/Programmed cell death 1 ligand 1 (Homo sapiens, UniProt Q9NZQ7); experiment: Inhibition of PD-1/PD-L1 interaction (unknown origin) incubated for 15 min by HTRF assay; format: protein-complex assay
# T1 sequence (Q15116 whole entry): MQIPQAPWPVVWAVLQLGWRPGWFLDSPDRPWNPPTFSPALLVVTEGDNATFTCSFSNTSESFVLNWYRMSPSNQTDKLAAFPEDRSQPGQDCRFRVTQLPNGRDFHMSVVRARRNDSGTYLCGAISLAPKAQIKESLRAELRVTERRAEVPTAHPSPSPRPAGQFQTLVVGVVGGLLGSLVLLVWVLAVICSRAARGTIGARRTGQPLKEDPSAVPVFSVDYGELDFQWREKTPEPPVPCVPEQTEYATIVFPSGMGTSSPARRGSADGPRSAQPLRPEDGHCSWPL
# T1 sequence (Q9NZQ7 whole entry): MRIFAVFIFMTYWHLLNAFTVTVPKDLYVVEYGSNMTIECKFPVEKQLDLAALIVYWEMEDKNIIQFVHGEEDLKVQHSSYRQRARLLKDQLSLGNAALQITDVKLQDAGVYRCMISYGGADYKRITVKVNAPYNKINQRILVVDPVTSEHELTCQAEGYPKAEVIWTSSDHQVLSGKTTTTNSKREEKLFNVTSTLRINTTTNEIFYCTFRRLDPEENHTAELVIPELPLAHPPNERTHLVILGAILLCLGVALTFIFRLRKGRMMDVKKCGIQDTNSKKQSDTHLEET
# CHO-K1 [3] = experiment: Cytotoxicity against […] cells expressing PD-L1 assessed as reduction in cell viability at 50 uM incubated for 6 hrs by CCK-8 assay; format: toxicity, cell-based, Cricetulus griseus; settings: chinese hamster, cho-k1, 6 h
# [4] = target: T2, Programmed cell death protein 1/Programmed cell death 1 ligand 1 (Homo sapiens, UniProt Q15116+Q9NZQ7); experiment: Inhibition of interaction of human PD-1 expressed in Jurkat T cells co-transfected with NFAT/human PD-L1 expressed in CHO-K1 cells co-expressing aAPC assessed as maximum relative light unit preincubated with CHO-K1 cells followed by Jurkat cell addition and measured after 6 hrs by automated microplate spectrophotometer analysis; format: cell-based
# T2 sequence (Q15116 whole entry): as the sequence (Q15116 whole entry) above
# T2 sequence (Q9NZQ7 whole entry): as the sequence (Q9NZQ7 whole entry) above
# Jurkat = experiment: Cytotoxicity against human Jurkat cells expressing PD-1 assessed as reduction in cell viability at 50 uM incubated for 6 hrs by CCK-8 assay; format: functional, cell-based
# [5] = target: Programmed cell death protein 1 (Homo sapiens) (UniProt Q15116); experiment: Inhibition of human PD-1 expressed in Jurkat T cells co-transfected with NFAT by automated microplate spectrophotometer analysis; format: cell-based
# Chain of Programmed cell death protein 1 (Homo sapiens) (Q15116 whole entry): as the sequence (Q15116 whole entry) above
# [6] = target: T1, Programmed cell death protein 1/Programmed cell death 1 ligand 1; experiment: (§1) Inhibition of interaction of human PD-1 expressed in Jurkat T cells co-transfected with NFAT/human PD-L1 expressed in CHO-K1 cells co-expressing aAPC preincubated with CHO-K1 cells followed by Jurkat cell addition and measured after 6 hrs by automated microplate spectrophotometer analysis; format: cell-based
# [7] = target: Programmed cell death 1 ligand 1 (Homo sapiens, UniProt Q9NZQ7); experiment: Binding affinity to his-tagged human PD-L1 assessed as dissociation constant by SPR analysis
# Chain of Programmed cell death 1 ligand 1 (Homo sapiens, UniProt Q9NZQ7) (Q9NZQ7 whole entry): as the sequence (Q9NZQ7 whole entry) above
# [8] = target: T2, Programmed cell death protein 1/Programmed cell death 1 ligand 1; experiment: as §1; format: cell-based; settings: cho-k1
# [9] = Mutagenicity in Salmonella typhimurium TA100 by mini-Ames test; format: toxicity; settings: salmonella enterica subsp. enterica serovar typhimurium
# CT26 = experiment: Cytotoxicity against mouse CT26 cells assessed as effect on cell viability at 0.07 to 150 uM incubated for 48 hrs by CCK-8 assay; format: functional, cell-based; settings: dose 0.07-150 µM
# [10] = Half life in Sprague-Dawley rat at 50 mg/kg, po measured upto 24 hrs by LC-MS/MS analysis; format: ADME, organism-based; settings: in vivo
# CHO-K1 [11] = experiment: Induction of PD-L1 internalization in CHO-K1 cells assessed as increase in PD-L1 concentration in cytoplasm at 10 uM incubated for 12 hrs by DIL-staining based confocal microscopic analysis analysis; format: functional, cell-based; settings: Cricetulus griseus
# PBMC [12] = experiment: Induction of antitumor immunity in human PBMC cells expressing PD-L1 assessed as increase in IFN-gamma expression incubated for 12 hrs by ELISA analysis; format: functional, cell-based; settings: dose 0.1-10 µM
# [13] = Stability in human liver microsomes assessed as half life; format: ADME, Microsome
# [14] = Cmax in Sprague-Dawley rat at 50 mg/kg, po measured upto 24 hrs by LC-MS/MS analysis; format: ADME, organism-based; settings: in vivo
# [15] = Tmax in Sprague-Dawley rat at 50 mg/kg, po measured upto 24 hrs by LC-MS/MS analysis; format: ADME, organism-based; settings: in vivo
# PBMC [16] = experiment: Induction of antitumor immunity in human PBMC cells expressing PD-L1 assessed as increase in IL-2 expression incubated for 12 hrs by ELISA analysis; format: functional, cell-based; settings: dose 0.1-10 µM
# CHO-K1 [17] = experiment: Induction of PD-L1 internalization in CHO-K1 cells assessed as increase in PD-L1 concentration in nucleus at 10 uM incubated for 12 hrs by DIL-staining based confocal microscopic analysis analysis; format: functional, cell-based; settings: Cricetulus griseus
# CHO-K1 [18] = experiment: Reduction in cell surface PD-L1 expression in CHO-K1 cells expressing aAPC incubated for 24 hrs by flow cytometry analysis; format: functional, cell-based; settings: Cricetulus griseus, dose 0.1-10 µM
# [19] = Lipophilicity, log D of the compound at pH 7.4; format: physicochemical; settings: buffer
# CHO-K1 [20] = experiment: Reduction in cell surface PD-L1 expression in CHO-K1 cells expressing aAPC at 10 uM incubated for 24 hrs by immunofluorescence based microscopic analysis; format: functional; settings: Cricetulus griseus
# MC-38 [21] = experiment: Cytotoxicity against mouse MC38 cells assessed as effect on cell viability at 0.07 to 150 uM incubated for 48 hrs by CCK-8 assay; format: functional, cell-based; settings: dose 0.07-150 µM
# [22] = target: Programmed cell death 1 ligand 1 (Mus musculus, UniProt Q9EP73); experiment: Binding affinity to his-tagged mouse PD-L1 assessed as dissociation constant by SPR analysis
# Chain of Programmed cell death 1 ligand 1 (Mus musculus, UniProt Q9EP73) (Q9EP73 whole entry): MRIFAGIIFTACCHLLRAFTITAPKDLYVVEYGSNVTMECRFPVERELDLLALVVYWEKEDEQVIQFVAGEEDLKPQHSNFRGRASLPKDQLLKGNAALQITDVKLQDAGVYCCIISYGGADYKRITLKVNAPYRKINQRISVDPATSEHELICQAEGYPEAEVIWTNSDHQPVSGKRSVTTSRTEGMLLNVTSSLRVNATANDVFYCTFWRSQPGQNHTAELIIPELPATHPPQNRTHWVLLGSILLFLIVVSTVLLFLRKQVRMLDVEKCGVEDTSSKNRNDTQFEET
# [23] = AUC (0 to t) in Sprague-Dawley rat at 50 mg/kg, po measured upto 24 hrs by LC-MS/MS analysis; format: ADME, organism-based; settings: in vivo
# [24] = Water solubility of the compound; format: physicochemical
# [25] = target: Voltage-gated inwardly rectifying potassium channel KCNH2 (Homo sapiens, UniProt Q12809); experiment: Inhibition of hERG upto 30 uM; format: toxicity
# Chain of Voltage-gated inwardly rectifying potassium channel KCNH2 (Q12809 whole entry): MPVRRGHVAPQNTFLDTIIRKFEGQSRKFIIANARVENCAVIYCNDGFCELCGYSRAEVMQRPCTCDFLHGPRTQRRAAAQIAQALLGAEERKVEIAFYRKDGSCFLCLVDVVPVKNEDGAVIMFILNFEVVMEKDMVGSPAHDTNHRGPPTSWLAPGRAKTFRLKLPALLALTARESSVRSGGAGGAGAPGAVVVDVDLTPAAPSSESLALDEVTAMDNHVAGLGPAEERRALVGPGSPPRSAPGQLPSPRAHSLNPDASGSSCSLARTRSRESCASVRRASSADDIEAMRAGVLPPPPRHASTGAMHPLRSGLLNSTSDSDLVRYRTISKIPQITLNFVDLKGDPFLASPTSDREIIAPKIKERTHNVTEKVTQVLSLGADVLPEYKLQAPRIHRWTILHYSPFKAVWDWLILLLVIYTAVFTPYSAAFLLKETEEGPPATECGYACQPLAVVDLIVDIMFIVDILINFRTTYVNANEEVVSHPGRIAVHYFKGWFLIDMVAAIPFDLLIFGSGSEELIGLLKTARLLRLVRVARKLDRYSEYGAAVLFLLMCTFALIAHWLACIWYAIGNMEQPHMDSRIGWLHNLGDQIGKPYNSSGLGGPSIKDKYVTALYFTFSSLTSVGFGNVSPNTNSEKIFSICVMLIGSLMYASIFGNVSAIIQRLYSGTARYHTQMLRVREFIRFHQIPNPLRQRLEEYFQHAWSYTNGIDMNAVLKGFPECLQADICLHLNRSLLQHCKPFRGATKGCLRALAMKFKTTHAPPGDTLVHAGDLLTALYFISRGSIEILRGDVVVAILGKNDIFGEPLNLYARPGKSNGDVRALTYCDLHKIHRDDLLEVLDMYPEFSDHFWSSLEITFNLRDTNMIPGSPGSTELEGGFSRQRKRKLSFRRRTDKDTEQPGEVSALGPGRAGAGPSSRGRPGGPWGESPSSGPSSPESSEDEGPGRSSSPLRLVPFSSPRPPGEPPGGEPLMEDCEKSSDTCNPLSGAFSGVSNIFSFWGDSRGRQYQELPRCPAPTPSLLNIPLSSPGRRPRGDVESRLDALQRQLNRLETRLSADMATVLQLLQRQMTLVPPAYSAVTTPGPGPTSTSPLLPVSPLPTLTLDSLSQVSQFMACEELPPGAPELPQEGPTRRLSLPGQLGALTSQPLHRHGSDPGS
# [26] = Mutagenicity in Salmonella typhimurium TA98 by mini-Ames test; format: toxicity; settings: salmonella enterica subsp. enterica serovar typhimurium
# PBMC [27] = experiment: Induction of antitumor immunity in human PBMC cells assessed as increase in IFN-gamma expression at 0.1 to 10 uM incubated for 12 hrs by ELISA analysis; format: functional, cell-based; settings: dose 0.1-10 µM
smiles,measurement,setting,value
O=C(O)[C@@H](CO)NCc1cc(Cl)c(OCc2cccc(-c3ccccc3)c2Br)cc1OCc1ccc2nonc2c1 [listing 1 of 3 here],inhibition in vivo at 5 mg/kg,MC-38 [1],52.5%
O=C(O)[C@@H](CO)NCc1cc(Cl)c(OCc2cccc(-c3cccc(OCCCNCCO)c3)c2Cl)cc1OCc1ccc2nonc2c1,IC50,[2],6.1 nM
O=C(O)C1CCN(CCCCOc2cccc(-c3cccc(COc4cc(OCc5ccc6nonc6c5)c(CN[C@H](CO)C(=O)O)cc4Cl)c3Cl)c2)CC1,IC50,[2],8.8 nM
O=C(O)[C@@H](CO)NCc1cc(Cl)c(OCc2cccc(-c3ccccc3)c2Br)cc1OCc1ccc2nonc2c1 [listing 2 of 3 here],Activity,CHO-K1 [3],Non-Toxic
O=C(O)[C@@H](CO)NCc1cc(Cl)c(OCc2cccc(-c3cccc(OCCCN4CCOCC4)c3)c2F)cc1OCc1ccc2nonc2c1,IC50,[2],12.5 nM
O=C(O)[C@@H](CO)NCc1cc(Cl)c(OCc2cccc(-c3cccc(OCCCCN4CCC(O)CC4)c3)c2Cl)cc1OCc1ccc2nonc2c1,IC50,[2],3.3 nM
O=C(O)[C@@H](CO)NCc1cc(Cl)c(OCc2cccc(-c3cccc(OCCCNCCN4CCCCC4)c3)c2Cl)cc1OCc1ccc2nonc2c1,IC50,[2],23.8 nM
O=C(O)[C@@H](CO)NCc1cc(Cl)c(OCc2cccc(-c3cccc(OCCCNS(=O)(=O)N4CCOCC4)c3)c2Cl)cc1OCc1ccc2nonc2c1,IC50,[2],87.6 nM
O=C(O)[C@@H](CO)NCc1cc(Cl)c(OCc2cccc(-c3ccccc3)c2Br)cc1OCc1ccc2nonc2c1 [listing 3 of 3 here],Activity,[4],1.8 RLU
same,Activity,Jurkat,Active
same,inhibition,[5],inactive
O=C(O)[C@@H](CO)NCc1cc(Cl)c(OCc2cccc(-c3cccc(OCCCCN(CCO)CCO)c3)c2Cl)cc1OCc1ccc2nonc2c1,IC50,[2],8.2 nM
O=C(O)[C@@H](CO)NCc1cc(Cl)c(OCc2cccc(-c3cccc(OCCCN4CCC(O)CC4)c3)c2Cl)cc1OCc1ccc2nonc2c1,Activity,[4],2.2 RLU
same,IC50,[2],2.02 nM
same,Activity,Jurkat,Active
same,Activity,CHO-K1 [3],Non-Toxic
same,inhibition,[5],inactive
same,EC50,[6],158 nM
same,Kd,[7],22.9 nM
CCN(CC)C(=O)CCOc1cccc(-c2cccc(COc3cc(OCc4ccc5nonc5c4)c(CN[C@H](CO)C(=O)O)cc3Cl)c2Cl)c1,IC50,[2],187 nM
same,Activity,Jurkat,Active
same,Activity,CHO-K1 [3],Non-Toxic
same,EC50,[8],Not Active
O=C(O)[C@@H](CO)NCc1cc(Cl)c(OCc2cccc(-c3cccc(OCCCCN4CCC(O)CC4)c3)c2F)cc1OCc1ccc2nonc2c1,IC50,[2],3.1 nM
O=C(O)[C@@H](CO)NCc1cc(Cl)c(OCc2cccc(-c3cccc(OCCN4CCOCC4)c3)c2Cl)cc1OCc1ccc2nonc2c1,IC50,[2],121 nM
O=C(O)[C@@H](CO)NCc1cc(Cl)c(OCc2cccc(-c3cccc(OCCN4CCC(O)CC4)c3)c2Cl)cc1OCc1ccc2nonc2c1,IC50,[2],40.5 nM
COP(=O)(NCCCOc1cccc(-c2cccc(COc3cc(OCc4ccc5nonc5c4)c(CN[C@H](CO)C(=O)O)cc3Cl)c2Cl)c1)OC,IC50,[2],746 nM
CCN(CC)CCCOc1cccc(-c2cccc(COc3cc(OCc4ccc5nonc5c4)c(CN[C@H](CO)C(=O)O)cc3Cl)c2Cl)c1,IC50,[2],78.3 nM
O=C(O)[C@@H](CO)NCc1cc(Cl)c(OCc2cccc(-c3cccc(OCCCCN4CCNCC4)c3)c2Cl)cc1OCc1ccc2nonc2c1,IC50,[2],42.1 nM
O=C(O)[C@@H](CO)NCc1cc(Cl)c(OCc2cccc(-c3cccc(OCCCN4CCOCC4)c3)c2Cl)cc1OCc1ccc2nonc2c1,IC50,[2],34.7 nM
O=C(O)[C@@H](CO)NCc1cc(Cl)c(OCc2cccc(-c3cccc(OCCCN4CCC(O)CC4)c3)c2F)cc1OCc1ccc2nonc2c1,Activity,[9],Non-Toxic
same,Activity,[4],2.3 RLU
same,Activity,CT26,inactive
same,half-life,[10],5.3 h
same,Activity,CHO-K1 [11],Active
same,Activity,PBMC [12],Dose-Dependent Effect
same,half-life,[13],1.95 h
same,Cmax,[14],45.6 ng/mL
same,Tmax,[15],6 min
same,Activity,PBMC [16],Dose-Dependent Effect
same,Activity,CHO-K1 [17],Active
same,Activity,CHO-K1 [18],Dose-Dependent Effect
same,logD,[19],0.67
same,Activity,CHO-K1 [20],Active
same,IC50,[2],13 nM
same,Activity,Jurkat,Active
same,Activity,MC-38 [21],inactive
same,Activity,CHO-K1 [3],Non-Toxic
same,Kd,[22],31.8 nM
same,inhibition,[5],inactive
same,AUC(0-t) at 24 h,[23],82.1 ng·h/mL
same,solubility,[24],23.6 µM
same,inhibition (INH),[25],Not Active
same,EC50,[6],153 nM
same,Kd,[7],2 nM
same,Activity,[26],Non-Toxic
same,Activity,PBMC [27],inactive
O=C(O)[C@@H](CO)NCc1cc(Cl)c(OCc2cccc(-c3cccc(OCCCCN4CCC(CO)CC4)c3)c2Cl)cc1OCc1ccc2nonc2c1,IC50,[2],3.5 nM
O=C(O)[C@@H](CO)NCc1cc(Cl)c(OCc2cccc(-c3cccc(OCCCN(CCO)CCO)c3)c2Cl)cc1OCc1ccc2nonc2c1,Activity,[4],2 RLU
same,IC50,[2],5.4 nM
same,Activity,Jurkat,Active
same,Activity,CHO-K1 [3],Non-Toxic
same,inhibition,[5],inactive
same,EC50,[6],353 nM
same,Kd,[7],34.1 nM
O=C(O)[C@@H](CO)NCc1cc(Cl)c(OCc2cccc(-c3cccc(OCCN(CCO)CCO)c3)c2Cl)cc1OCc1ccc2nonc2c1,IC50,[2],109 nM
O=C(O)[C@@H](CO)NCc1cc(Cl)c(OCc2cccc(-c3cccc(OCCCCN4CCOCC4)c3)c2F)cc1OCc1ccc2nonc2c1,IC50,[2],21.2 nM

# Reference: ChEMBL document CHEMBL5518218, “Discovery of Novel PD-L1 Small-Molecular Inhibitors with Potent In Vivo Anti-tumor Immune Activity” (J Med Chem, 2024)
